Laboratory results published in article PMC9356275, “A quantitative high-throughput screen identifies compounds that lower expression of the SCA2-and ALS-associated gene ATXN2” (The Journal of Biological Chemistry, 2022).
Where two headings read alike, the source gives them in different places.

Key:
[1] = parameters: method as in PMID 25625276; settings: ref [41]; cited from earlier work
ATXN2 protein = test: Cerebellar ATXN2 protein by Western blotting in BAC ATXN2-Q22 mice; format: in vivo, mouse
Text: Figure 5 Effect of HSP90 inhibitors on ATXN2 cerebellar expression in vivo in BAC ATXN2-Q22 mice. Inhibition of ATXN2 expression by 17-DMAG (A) and HSP990 (B) versus vehicle controls. Mouse ID numbers are shown above the lanes. Western blot analysis showing upregulation of HSP70 expression following 17-DMAG treatment, which indicates successful HSP90 target engagement. The human transgenic ATXN2 protein is indicated as ATXN2-Q22 and the endogenous mouse protein as mATXN2. Values shown are mean and SD. Probabilities are from Student’s t tests: ∗p < 0.05; ∗∗∗p < 0.001. Three blots were quantified. ATXN2, ataxin-2; BAC, bacterial artificial chromosome; 17-DMAG, 17-dimethylaminoethylamino-17-demethoxygeldanamycin; HSP, heat shock protein.
(§1) Control-treated mice included vehicle alone.
Proteins were prepared, separated on precast polyacrylamide gels (Bio-Rad), transferred to Hybond (Amersham), and detected by enhanced chemiluminescence (Amersham) as previously described ([12], [27]). […]

ATXN2 mRNA = test: Cerebellar ATXN2 mRNA by qPCR in BAC ATXN2-Q22 mice; settings: 4 mg/kg intraperitoneal, every other day over 10 days
BAC ATXN2-Q22 mice = test: Survival / tolerability of treated BAC ATXN2-Q22 mice; format: in vivo, mouse
Text: Our study identified 11 compounds known to inhibit HSP90, including one that was identified in our original pilot screen. […] 17-DMAG inhibited transcription of ATXN2 in HEK-293 cells in a dose-dependent manner and reduced the abundance of endogenous and mutant ATXN2 proteins in HEK-293 cells (Figs. 3 and 4). […] Toxicity was evident in our in vivo experiment as well. […] However, like for 17-DMAG, BAC ATXN2-Q22 mice treated with HSP990 had 80% reduced ATXN2 protein abundance in the cerebellum (Fig. 5B).
as §1

H2 and S1 cells = test: Paired MTT viability assay, average of H2 and S1 cells (1 and 10 uM); format: cell-based, human; settings: Homo sapiens
Text: (§2) Supplement mmc2.xlsx, sheet "43 annotated compounds"

ATXN2-luc [2] = test: MSSR pilot screen: ATXN2-luc luciferase assay (Bright-Glo) in H2 cells, single 10 μM dose; format: cell-based, human
in vitro = settings: human
Description: The values for H2 and S2 were used as replicates to calculate IC50s and to assess cell viability.
Compounds were plated at 2× concentrations in phenol red–free DMEM in 25 μl in 384-well plates with each compound dose plated in triplicate. An equal volume of S2, H2, or SC cells (24,000 cells/well) suspended in phenol red–free DMEM with 10% fetal bovine serum and 1× penicillin/streptomycin were added. Cells were grown 24 h and then assayed first by using the CellTiter-Fluor reagent (20 μl) followed by the addition of Bright-Glo (65 μl) luciferase assay, using a multimode plate reader (Beckman; DT880). Values were reported as the mean ± SD with n = 3. IC50s were determined by the Hill coefficient method using an online tool (https://www.aatbio.com/tools/ic50-calculator).

ATXN2-luc [3] = test: Secondary assays: ATXN2-luc in S2 and H2 cells, 12 doses, Bright-Glo; format: cell-based, human
ATXN2-luc [4] = test: MSSR hit retest: ATXN2-luc luciferase assay, average of H2 and S1 cells (1 and 10 uM); format: cell-based, human; settings: Homo sapiens
Text: as §2

CMV-luc = test: Secondary assays: CMV-luc in SC cells, Bright-Glo; format: cell-based, human; settings: minimum CMV-luc signal in SC cells over 12 doses; summary data
endogenous ATXN2 = test: Endogenous ATXN2 mRNA by qPCR in HEK-293 cells; format: cell-based; settings: Homo sapiens
H2 cells = settings: 1 nM
ATXN2-luc [5] = test: ATXN2-luc luciferase dose-response in H2 cells, 48 h; format: cell-based; settings: Homo sapiens
[6] = test system: endogenous nonmutant ATXN2 protein; test: Western blotting of endogenous ATXN2 protein in HEK-293 cells; format: cell-based, human
Description: (§3) To characterize a bioavailable HSP90 inhibitor, we proceeded by using 17-dimethylaminoethylamino-17-demethoxygeldanamycin (17-DMAG, also known as alvespimycin) for inhibition of ATXN2 in cultured cells instead of the original compounds identified in the screen.
Experiments were repeated three times; values are means and SD.

[7] = parameters: method as in PMID 24471734, PMID 15791458; settings: ref [39], [40]; cited from earlier work
mutant ATXN2-Q58 protein = test: Western blotting in HEK-293 ATXN2-Q58 KI cells; format: cell-based, human; settings: 24 h
Description: as §3
Figure 4 Reduction of ATXN2 expression by 17-DMAG restores autophagy and ER stress phenotypes in ATXN2 mutant cells.A, ATXN2-Q58 HEK-293 cells were treated with 17-DMAG at the indicated doses for 24 h, and then proteins were evaluated by Western blotting. Untreated HEK-293 cells with normal A P-eIF2α TXN2 were also included. […] B, quantification of the blots in A. The n number of blots ranged from 3 to 9. Values are means and SD. Probabilities are from one-way ANOVA and post hoc Bonferroni-corrected t tests: ns; ∗p < 0.05; ∗∗p < 0.01, and ∗∗∗p < 0.001.

ATXN2-luc [8] = test: ATXN2-luc mRNA by quantitative PCR in H2 cells; format: cell-based, human; settings: 1 and 10 μM, 48 h
Description: treated with the indicated doses of DMAG for 48 hours, then ATXN2-luc mRNA abundance was
determined by quantitative PCR using primers that amplify the luciferase gene.

HSP90 = HSP90 target engagement: HSP70 abundance by Western blotting in HEK-293 cells; format: cell-based, human
[9] = 100 mg/kg intraperitoneal, every other day over 16 days

In the case of COc1cccc(-c2cc(F)ccc2[C@H]2Cc3nc(N)nc(C)c3C(=O)N2)n1 [HSP990], the “Toxicity in clinical trial” value [1] is listed as “dose-limiting neurotoxicity”, the “Reduced ATXN2 protein abundance in the cerebellum” value (ATXN2 protein; 4 mg/kg intraperitoneal, every other day over 10 days) is listed as 80% and the “Reduced ATXN2 mRNA abundance in cerebella” value (ATXN2 mRNA) is listed as 20%. For the same molecule, the “ATXN2 mRNA abundance in cerebella” value (ATXN2 mRNA; […]) was 78.54 ± 3.9% and the “Survival of treated mice” value (BAC ATXN2-Q22 mice; 4 mg/kg intraperitoneal, every other day over 10 days, n = 4) was “half of the mice we treated with HSP990 did not survive treatment”.

With C[C@@H]1O[C@@H](O[C@@H]2C=C3CC[C@@H]4[C@H](CC[C@]5(C)[C@@H](c6ccc(=O)oc6)CC[C@]45O)[C@@]3(C)CC2)[C@H](O)[C@H](O)[C@H]1O [Proscillaridin A] the viability at 1 µM (H2 and S1 cells; read-out: H2&S1 ave MTT 1uM, 1 uM compound) was 47.8%, the viability at 10 µM (H2 and S1 cells; read-out: H2&S1 ave MTT 10uM, 10 uM compound) was 45% and the “SD from mean (ATXN2-luc, Z-score)” value (ATXN2-luc [2]; H2 cells, single dose (title: 10 μM compound), overnight) was -7.684 SD. The “SD from mean (pilot screen)” value (ATXN2-luc [2]; pilot screen) was -7.684 SD, the “SD from mean (pilot screen)” value (ATXN2-luc [2]; pilot screen at 10 µM compound, H2 cells expressing ATXN2-luc) was -7.684 and the “¦Score/1SD¦” value (ATXN2-luc [2]; pilot screen, absolute score divided by 1SD (0.891 or 0.9)) was 8.62. For the same molecule, the viability at 24 h (in vitro) was 74.2%, the IC50 (ATXN2-luc [3]; Homo sapiens, 24 h, read-out: IC50 for lowering ATXN2-luc) was 17 nM and the “min ATXN2-luc (%)” value (ATXN2-luc [3]; minimum ATXN2-luc signal over 12 doses, H2 and S2 cells, summary data) was 7.9859%. The activity at 1 µM (ATXN2-luc [4]; read-out: H2&S1 ave luc 1uM) was 54%, the activity (ATXN2-luc [4]; read-out: H2&S1 ave luc 10uM) was 22% and the “min SC luc (%)” value (CMV-luc) was 121.976%. The IC50 (endogenous ATXN2; HEK293, 48 h, read-out: IC50, endogenous ATXN2 by qPCR) was 677 nM, the “Cellular viability (MTT)” value (H2 cells) was “minimal effect on cellular viability” and the IC50 (ATXN2-luc [5]; read-out: IC50, ATXN2-luc expression by luciferase assay) was 52 nM.

In the case of CO[C@H]1/C=C\C=C(/C)C(=O)NC2=CC(=O)C(NCCN(C)C)=C(C[C@@H](C)C[C@H](OC)[C@H](O)[C@@H](C)/C=C(\C)[C@@H]1OC(N)=O)C2=O [17-DMAG, 17-dimethylaminoethylamino-17-demethoxygeldanamycin], the “Abundance of endogenous nonmutant ATXN2 protein” value [6] is given as “reduced the abundance of endogenous nonmutant ATXN2 protein”, the “Oral bioavailability and blood–brain barrier crossing” value [7] is given as “orally bioavailable and able to cross the blood–brain barrier” and the “Mutant ATXN2 protein abundance” value (mutant ATXN2-Q58 protein) is given as “significantly reduced mutant ATXN2 protein”. For the same molecule, the IC50 (endogenous ATXN2; HEK293, HEK-293 cells, read-out: IC50, endogenous ATXN2 transcription by qPCR) was 759 nM, the “Reduction of ATXN2 protein in the cerebellum” value (ATXN2 protein; [9]) was 90% and the IC50 (ATXN2-luc [5]; H2 cells, read-out: IC50 for lowering ATXN2-luc) was 93 nM. For the same molecule, the “ATXN2-luc transcription (mRNA by qPCR)” value (ATXN2-luc [8]) was “reduction of ATXN2-luc transcription”, the “ATXN2-luc transcription (mRNA by qPCR)” value (ATXN2-luc [8]; listed as DMAG) was “reduces transcription of ATXN2-luc” and the Tolerability in mice (BAC ATXN2-Q22 mice; [9]) was “well tolerated”. For the same molecule, the HSP70 abundance (HSP90) was “significantly increased HSP70 abundance”.
